Laboratory results from patent US20150258057A1, “FATTY ACID DERIVATIVES FOR TREATING INFECTIOUS DISEASES” (IMARKO RESEARCH S.A., priority 2014, published 2015).

Columns and labels:
Assay in all cases: diffusion method in agar medium (zone of inhibition)
Format in all cases: cell-based
Saccharomyces cerevisiae = conditions: for inhibition of growth (in words): Table 2
Description: (§1) The antibiotic activity of zinc and copper soaps (salts of copper caprylate, caprate, caproate and laurate; and salts of zinc caprylate, caprate, caproate and laurate) was measured according to the diffusion method in agar medium, the protocol of which is detailed below.
(§2) This method consists in depositing on inoculated agar culture medium sterile absorbent paper discs impregnated with the antibiotic solution to be examined.
(§3) The activity of an antibiotic is estimated by comparing the inhibition of growth of sensitive microorganisms caused respectively by known concentrations of the antibiotic to be examined and of a reference substance.
(§4) The diluents and culture media used are: • 0.85% physiological saline (AES, reference PHYW-AEB110389), • buffered peptone water (bioMerieux, reference 42111), • Sabouraud glucose agar with chloramphenicol (bioMerieux, reference 42620), • Neutral MRS agar pH=6.4 (AES, reference AEB621756N), • Trypcase soy agar (bioMerieux, reference 41466), • Cetrimide agar (bioMerieux, reference 43565).
(§5) The agar culture medium is poured into a petri dish. Once solidified, the surface of the agar is inoculated in a layer with the selected microorganism. Then fitter paper discs, 6.6 mm in diameter, impregnated with the various solutions to be tested are placed on the surface. The petri dishes are left at room temperature for about 1 hour to allow the substances to diffuse in the agar.
(§6) The cultures are then incubated at 32.5° C.±2.5° C. The agar media and the incubation conditions are suited to the inoculated microorganism.
(§7) The diameter of the zone of inhibition is a function of the concentration, diffusion and activity of the tested substance placed on the filter.

[1] = tested on: Lactobacillus acidophilus; conditions: for inhibition of growth (in words): Table 2
Description: as §1, §2, §3, §4, §5, §6, §7

[2] = tested on: Bacillus coagulans (spores); conditions: for inhibition of growth (in words): Table 2
Description: as §1, §2, §3, §4, §5, §6, §7

Bifidobacterium = conditions: for inhibition of growth (in words): Table 2
Description: as §1, §2, §3, §4, §5, §6, §7

Lactobacillus plantarum = conditions: for inhibition of growth (in words): Table 2
Description: as §1, §2, §3, §4, §5, §6, §7

Lactobacillus paracasei = conditions: for inhibition of growth (in words): Table 2
Description: as §1, §2, §3, §4, §5, §6, §7

Pseudomonas putida = conditions: 200 mg in 2 ml of DMSO, disc 6.6 mm
Description: as §1, §2, §3, §4, §5, §6, §7

[3] = 200 mg in 2 ml of DMSO, disc 6.6 mm

| SMILES | inhibition of growth (in words) (Saccharomyces cerevisiae) | inhibition of growth (in words) [1] | inhibition of growth (in words) [2] | inhibition of growth (in words) (Bifidobacterium) | inhibition of growth (in words) (Lactobacillus plantarum) | inhibition of growth (in words) (Lactobacillus paracasei) | Diameter of inhibition (Saccharomyces cerevisiae; [3]) [mm] | Diameter of inhibition [1, 3] [mm] | Diameter of inhibition [2, 3] [mm] | Diameter of inhibition (Pseudomonas putida) [mm] | Diameter of inhibition (Bifidobacterium; [3]) [mm] | Diameter of inhibition (Lactobacillus plantarum; [3]) [mm] | Diameter of inhibition (Lactobacillus paracasei; [3]) [mm] |
| --- | --- | --- | --- | --- | --- | --- | --- | --- | --- | --- | --- | --- | --- |
| CCCCCCCCCCCC(=O)OCC(O)CO (stereo not shown) [Glycerol monolaurate] | no inhibition | inhibition | inhibition | no inhibition | no inhibition | no inhibition | – | – | – | – | – | – | – |
| CCCCCCCC(=O)OCC(O)CO (stereo not shown) [Glyceryl caprylate] | inhibition | inhibition | inhibition | inhibition | inhibition | inhibition | – | – | – | – | – | – | – |
| CCCCCCCC(=O)Oc1cc(C)ccc1C(C)C [Thymol caprylate] | – | – | – | – | – | – | 7.28 | 8.2 | 8.5 | 7.86 | 9 | 6.9 | 7.75 |
